# In patent publication US20130261154A1 (priority 2010, published 2013):
# What was measured:
# Format in all cases: in vivo
# [1] = test system: Phytophthora infestans; settings: tomato seedlings; sprayed to run-off, inoculated the following day; visual disease rating; test concentration not given
# [2] = test system: Phytophthora infestans; settings: tomato seedlings; inoculated, 17 h later sprayed to run-off; visual disease rating; test concentration not given
# [3] = test system: Plasmopara viticola; assay: Test A: grape downy mildew, spray after inoculation of grape seedlings; settings: inoculated, 24 h later sprayed to run-off, visual disease rating, test concentration not given
# Text: General protocol for preparing test suspensions for Test A-C: The test compounds were first dissolved in acetone in an amount equal to 3% of the final volume and then suspended at the desired concentration (in ppm) in acetone and purified water (50/50 mix by volume) containing 250 ppm of the surfactant Trem® 014 (polyhydric alcohol esters). The resulting test suspensions were then used in Tests A-C. Spraying a 40 ppm test suspension to the point of run-off on the test plants was equivalent to a rate of 160 g/ha.
# Grape seedlings were inoculated with a spore suspension of Plasmopara viticola (the causal agent of grape downy mildew) and incubated in a saturated atmosphere at 20° C. for 24 h. After a short drying period, the test suspension was sprayed to the point of run-off on the grape seedlings, which were then moved to a growth chamber at 20° C. for 5 days, after which time the grape seedling were placed back into a saturated atmosphere at 20° C. for 24 h. Upon removal, visual disease ratings were made.
# Results for Tests A-C are given in Table A. In the table, a rating of 100 indicates 100% disease control and a rating of 0 indicates no disease control (relative to the controls).
Structure (SMILES),"Test B disease control rating (100 = 100% disease control, 0 = no disease control relative to the controls) [1] [%]","Test C disease control rating (100 = 100% disease control, 0 = no disease control relative to the controls) [2] [%]","Test A disease control rating (100 = 100% disease control, 0 = no disease control relative to the controls) [3] [%]"
Cc1cc(C(F)(F)F)nn1CC(=O)N1CCC(c2nc(C3=NOC(COc4c(F)cccc4F)C3)cs2)CC1 (stereo not drawn) [Compound 10],100,64,0
COc1cc(F)c(OCC2CC(c3csc(C4CCN(C(=O)Cn5nc(C(F)(F)F)cc5C)CC4)n3)=NO2)c(F)c1 (stereo not drawn) [Compound 16],100,99,99
Cc1cc(C(F)(F)F)nn1CC(=O)N1CCC(c2nc(C3=NOC(CCCN4C(=O)c5ccccc5C4=O)C3)cs2)CC1 (stereo not drawn) [Compound 5],100,99,67
Cc1cc(C(F)(F)F)nn1CC(=O)N1CCC(c2nc(C3=NOC(CCOc4ccccc4I)C3)cs2)CC1 (stereo not drawn) [Compound 1],99,91,86
COc1ccc(OCCC2CC(c3csc(C4CCN(C(=O)Cn5nc(C(F)(F)F)cc5C)CC4)n3)=NO2)c(F)c1 (stereo not drawn) [Compound 13],100,95,100
COC(=O)c1ccc(OCCC2CC(c3csc(C4CCN(C(=O)Cn5nc(C(F)(F)F)cc5C)CC4)n3)=NO2)c(F)c1 (stereo not drawn) [Compound 17],100,99,100
Cc1cc(C(F)(F)F)nn1CC(=O)N1CCC(c2nc(C3=NOC(CCON4C(=O)c5ccccc5C4=O)C3)cs2)CC1 (stereo not drawn) [Compound 9],99,73,0
"Cc1cc(C(F)(F)F)nn1CC(=O)N1CCC(c2nc(C3=NOC(CCCn4c(=O)sc5ccc(Cl)cc54)C3)cs2)CC1 (stereo not drawn) [Compound 8, 5-chloro-3-[3-[4,5-dihydro-3-[2-[1-[2-[5-methyl-3-(trifluoromethyl)-1H-pyrazol-1-yl]acetyl]-4-piperidinyl]-4-thiazolyl]-5-isoxazolyl]propyl]-2(3H)-benzothiazolone]",100,0,0
"Cc1cc(C(F)(F)F)nn1CC(=O)N1CCC(c2nc(C3=NOC(CC(=O)NCc4c(F)cccc4F)C3)cs2)CC1 (stereo not drawn) [Compound 4, N-[(2,6-difluorophenyl)methyl]-4,5-dihydro-3-[2-[1-[2-[5-methyl-3-(trifluoromethyl)-1H-pyrazol-1-yl]acetyl]-4-piperidinyl]-4-thiazolyl]-5-isoxazoleacetamide]",100,99,24
Cc1cc(C(F)(F)F)nn1CC(=O)N1CCC(c2nc(C3=NOC(CCOc4c(F)cc(C#N)cc4F)C3)cs2)CC1 (stereo not drawn) [Compound 14],100,73,99
"Cc1cc(C(F)(F)F)nn1CC(=O)N1CCC(c2nc(C3=NOC(COCN4C(=O)c5ccccc5C4=O)C3)cs2)CC1 (stereo not drawn) [Compound 3, 2-[[[4,5-dihydro-3-[2-[1-[2-[5-methyl-3-(trifluoromethyl)-1H-pyrazol-1-yl]acetyl]-4-piperidinyl]-4-thiazolyl]-5-isoxazolyl]methoxy]methyl]-1H-isoindole-1,3(2H)-dione]",95,46,40
"Cc1cc(C(F)(F)F)nn1CC(=O)N1CCC(c2nc(C3=NOC(CCOc4c(F)cccc4F)C3)cs2)CC1 (stereo not drawn) [Compound 2, 1-[4-[4-[5-[2-(2,6-difluorophenoxy)ethyl]-4,5-dihydro-3-isoxazolyl]-2-thiazolyl]-1-piperidinyl]-2-[5-methyl-3-(trifluoromethyl)-1H-pyrazol-1-yl]ethanone]",100,99,96
Cc1cc(C(F)(F)F)nn1CC(=O)N1CCC(c2nc(C3=NOC(CC(=O)Nc4c(F)cccc4F)C3)cs2)CC1 (stereo not drawn) [Compound 6],9,46,0
Cc1cc(C(F)(F)F)nn1CC(=O)N1CCC(c2nc(C3=NOC(CCOc4ccc(C#N)cc4F)C3)cs2)CC1 (stereo not drawn) [Compound 15],100,99,100
Cc1cc(C(F)(F)F)nn1CC(=O)N1CCC(c2nc(C3=NOC(CCCOc4c(F)cccc4F)C3)cs2)CC1 (stereo not drawn) [Compound 11],100,99,100
Cc1cc(C(F)(F)F)nn1CC(=O)N1CCC(c2nc(C3=NOC(CCCCOc4c(F)cccc4F)C3)cs2)CC1 (stereo not drawn) [Compound 12],99,92,100
COc1cc(F)c(OCCC2CC(c3csc(C4CCN(C(=O)Cn5nc(C(F)(F)F)cc5C)CC4)n3)=NO2)c(F)c1 (stereo not drawn) [Compound 18],71,17,79
